The values below come from patent publication US20030186315A1, “ADMINISTRATION OF AN AGENT WHICH DECREASES PROCESSING OF AMYLOID PRECURSOR PROTEIN” (priority 1999, published 2003).

The test system of assay [1] is human kidney 293 cells stably transfected with APPsw cDNA. Conditions: non-neuronal 293 cells expressing APPsw; cited from earlier work.
Assay [2] deals with NT2N neurons. As to the kind of experiment: Brefeldin A treatment of [35S]methionine-labeled NT2N neurons, immunoprecipitation of APP fragments from cell lysates and media. It counts as cell-based, human. From the text: The detection of APPβ in the cell lysate of NT2N neurons, together with the presence of Aβ40 and Aβ42 (Turner et al. 1996 J. Biol. Chem. 271:8966-8970), establish that an intracellular β-secretase pathway(s) exists in these cells. At present, no other cell line has been reported to produce detectable levels of intracellular APPβ from endogenous or over-expressed wild-type APP (Seubert et al. 1993 Nature 361:260-263; Haass et al. 1995a Nature Med. 1:1291-1296; Thinakaran et al. 1996b J. Biol. Chem. 271:9390-9397). […] In the absence of BFA, APPFL, APPβ, and Aβ were recovered from the cell lysates while APPα, APPβ, and Aβ were detected in the media of NT2N neurons.
Cultured NT2N neurons were starved in methionine-free DMEM HG (Life Technologies, Inc., Gaithersburg, Md.) for 30 minutes prior to incubation in fresh methionine-free DMEM HG containing 0.5 mCi/ml of [^35S]methionine (sp act. 1000 Ci/mmol; NEN-DuPont, Boston, Mass.). […] Quantitation of bands in the autoradiogram was performed using the ImageQuant software (Molecular Dynamics Inc. Sunnyvale, Calif.) in accordance with procedures described by Turner et al. 1996 J. Biol. Chem. 271:8966-8970. Radiolabeled proteins in SDS-PAGE gels and nitrocellulose replicas were also analyzed by standard autoradiographic methods. […]

In assay [3] the test system is NT2N neurons. As to the kind of experiment: ELISA distinguishing Aβ40 and Aβ42 in cell lysates and medium of BFA-treated NT2N neurons. The class given is cell-based, human. Here is the method:
Cell lysates and medium from the cells were then analyzed using an ELISA system which quantitatively distinguishes between Aβ40 and Aβ42 to ascertain whether alteration of Aβ levels by BFA was the result of altered levels of Aβ40, Aβ42 or both. Suzuki et al. 1994 Science 264:1336-1340. Results from the ELISA correlated with the immunoprecipitation data in that BFA abolished secretion of Aβ into the medium and reduced overall expression of intracellular Aβ by approximately 60%. However, it was the complete loss of […] that accounted for this decrease. […] Thus, γ-secretases appear to be active in the endoplasmic reticulum, but only to yield Aβ42. Further, it is believed that Aβ42 is preferentially generated in the ER while Aβ40, is generated in more distal components of the exocytic pathway.
NT2N neurons were pretreated with 20 Ag/ml of BFA for 1 hour before the addition of 0.5 mCi/ml of [^35S] methionine to the cultures for 16 hours in the absence or presence of BFA. The cell lysates and media were processed for immunoprecipitation as described in Example 3. For deglycosylation of APPG, the immunoprecipitates containing APPβ were washed twice in sodium phosphate buffer (20 mmol/l, pH 7.2) and boiled for 2 minutes in 10 μl of 1% SDS. The samples were then boiled for an additional 2 minutes after adding 90 μl of the sodium phosphate buffer with sodium azide (10 mmol/l), EDTA (50 mmol/l), and n-Octylglucoside (0.5% w/v). After this denaturation step, deglycosylation was initiated by the addition of 2 mU Neuraminidase (Arthrobacter; Boehringer Mannheim, Indianapolis, Ind.), 2.5 mU 0-Glycosidase (Boehringer Mannheim, Indianapolis, Ind.), and 0.4 U N-Glycosidase F (Boehringer Mannheim, Indianapolis, IN). The samples were then incubated at 37° C. for 18 hours and deglycosylated APPβ was run on 7.5% SDS-PAGE gels as described in Example 2.

A further assay relates to NT2N cells. As to the kind of experiment: Indirect immunofluorescence microscopy of cell surface distribution of SFV-expressed APP695 in NT2N cells. The class given is cell-based, human. Conditions: SFV-infected NT2N cells, 20 μg/ml BFA after infection. Here is the method: Since BFA treatment results in retention of all newly synthesized proteins in the ER, additional experiments were conducted to confirm that the generation of Aβ42 in the ER was not due to retention of newly synthesized proteases not being delivered to their proper site of action. Accordingly, an ER-retention signal was placed in APP695 in which the third and fourth amino acids from the C-terminus were changed to lysine (APP695ΔKK) . This lysine motif is sufficient to retain heterologous transmembrane proteins in the ER and intermediate compartment. In these experiments, recombinant Semliki Forest virus (SFV) vectors to express APP695ΔKK. Previous studies have shown that despite high levels of SFV-mediated APP expression, SFV infected NT2N cells display a high degree of fidelity in processing APP (Wertkin et al. 1993 Proc. Natl. Acad. Sci. USA 90:9513-9517; Turner et al. 1996 J. Biol. Chem. 271:8966-8970). […] To determine if APP695ΔKK was in fact retained in the ER, indirect immunofluorescence microscopy was used to monitor both intracellular and cell surface distribution of SFV-expressed APP695 and APP695ΔKK. While intracellular levels of APP695 and APP695ΔKK appeared similar, only APP695 was expressed on the cell surface. […]

Take `C[C@H]1CCC/C=C/[C@@H]2C[C@H](O)C[C@H]2[C@H](O)/C=C/C(=O)O1` [BFA, Brefeldin A]: the “APPβsw and Aβ production” value in assay [1] is “completely eliminates”. Further, the “secretion of APPα, APPβ, and Aβ into the medium” value with NT2N neurons [2] (20 μg/ml BFA, immunoprecipitation of media) was “completely abolished”. The “electrophoretic mobility of APPβ from BFA-treated versus untreated cells” value in the assay with NT2N neurons [2] (SDS-PAGE of immunoprecipitated APPβ) was “migrated more quickly”. Besides, in the assay on NT2N neurons [3] (cell lysate), the “intracellular Aβ40” value is on record as “complete loss”, the “intracellular Aβ42” value is listed as “largely unaffected” and the “reduction of overall expression of intracellular Aβ” value is on record as “approximately 60%”. Moreover, the “secretion of Aβ into the medium” value in the assay with NT2N neurons [3] (medium) was “abolished”. The “surface expression of APP695” value in the assay with NT2N cells is recorded as “blocked”.
